Measurements published in patent US7601716B2, “Pyridopyrazines and derivatives thereof as ALK and c-Met inhibitors” (Cephalon, Inc., priority 2006, dated 2009).

Key:
[1] = molecular target: T1, c-Met (cytoplasmic domain) (Homo sapiens, UniProt P08581); assay: c-Met Kinase Assay (ELISA/TRF, PLC-γ substrate); format: biochemical; conditions: 3 μM ATP (Km level); read-out: c-Met Kinase Inhibition (IC50)
T1 construct: Reactions were initiated with 30 ng/mL c-Met (cytoplasmic domain, Invitrogen Corporation #PV3143); purchased Invitrogen Corporation PV3143
Summary of the method: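 Readout is TRF of europium anti-phosphotyrosine (PT66) bound to GST–PLC-γ substrate coated at 10 μg/mL, after a 15 min, 37 °C reaction started with 30 ng/mL c-Met cytoplasmic domain. Percent inhibition plotted against log compound concentration and fitted (variable slope) for IC50.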

[2] = molecular target: baculovirus-expressed ALK (Homo sapiens, UniProt Q9UM73); assay: ALK Kinase Assay (ELISA/TRF, PLC-γ substrate); format: biochemical; conditions: read-out: ALK Kinase Inhibition (IC50); also: 1 µM ATP (Km level)
Summary of the method: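 ALK at 30 ng/ml phosphorylated plate-bound PLC-γ–GST fusion (coated from 10 μg/mL) during 15 minutes at 37° C. Product was detected with Eu-N1 PT66 anti-phosphotyrosine antibody and measured by time-resolved fluorescence.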

T1 sequence (P08581 956-1390 limits assumed): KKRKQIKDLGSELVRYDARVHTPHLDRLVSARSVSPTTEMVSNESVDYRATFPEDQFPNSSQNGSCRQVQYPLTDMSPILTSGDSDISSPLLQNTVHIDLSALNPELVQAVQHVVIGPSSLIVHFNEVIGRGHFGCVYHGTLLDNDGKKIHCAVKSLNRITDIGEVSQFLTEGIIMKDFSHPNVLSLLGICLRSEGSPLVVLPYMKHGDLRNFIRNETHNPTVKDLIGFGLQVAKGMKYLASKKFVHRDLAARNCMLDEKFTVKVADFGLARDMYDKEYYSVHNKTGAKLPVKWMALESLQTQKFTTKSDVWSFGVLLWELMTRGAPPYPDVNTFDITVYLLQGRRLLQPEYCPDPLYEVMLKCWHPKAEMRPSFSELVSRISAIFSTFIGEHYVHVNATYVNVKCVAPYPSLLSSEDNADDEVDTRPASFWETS
Sequence of baculovirus-expressed ALK (Q9UM73 19-1620): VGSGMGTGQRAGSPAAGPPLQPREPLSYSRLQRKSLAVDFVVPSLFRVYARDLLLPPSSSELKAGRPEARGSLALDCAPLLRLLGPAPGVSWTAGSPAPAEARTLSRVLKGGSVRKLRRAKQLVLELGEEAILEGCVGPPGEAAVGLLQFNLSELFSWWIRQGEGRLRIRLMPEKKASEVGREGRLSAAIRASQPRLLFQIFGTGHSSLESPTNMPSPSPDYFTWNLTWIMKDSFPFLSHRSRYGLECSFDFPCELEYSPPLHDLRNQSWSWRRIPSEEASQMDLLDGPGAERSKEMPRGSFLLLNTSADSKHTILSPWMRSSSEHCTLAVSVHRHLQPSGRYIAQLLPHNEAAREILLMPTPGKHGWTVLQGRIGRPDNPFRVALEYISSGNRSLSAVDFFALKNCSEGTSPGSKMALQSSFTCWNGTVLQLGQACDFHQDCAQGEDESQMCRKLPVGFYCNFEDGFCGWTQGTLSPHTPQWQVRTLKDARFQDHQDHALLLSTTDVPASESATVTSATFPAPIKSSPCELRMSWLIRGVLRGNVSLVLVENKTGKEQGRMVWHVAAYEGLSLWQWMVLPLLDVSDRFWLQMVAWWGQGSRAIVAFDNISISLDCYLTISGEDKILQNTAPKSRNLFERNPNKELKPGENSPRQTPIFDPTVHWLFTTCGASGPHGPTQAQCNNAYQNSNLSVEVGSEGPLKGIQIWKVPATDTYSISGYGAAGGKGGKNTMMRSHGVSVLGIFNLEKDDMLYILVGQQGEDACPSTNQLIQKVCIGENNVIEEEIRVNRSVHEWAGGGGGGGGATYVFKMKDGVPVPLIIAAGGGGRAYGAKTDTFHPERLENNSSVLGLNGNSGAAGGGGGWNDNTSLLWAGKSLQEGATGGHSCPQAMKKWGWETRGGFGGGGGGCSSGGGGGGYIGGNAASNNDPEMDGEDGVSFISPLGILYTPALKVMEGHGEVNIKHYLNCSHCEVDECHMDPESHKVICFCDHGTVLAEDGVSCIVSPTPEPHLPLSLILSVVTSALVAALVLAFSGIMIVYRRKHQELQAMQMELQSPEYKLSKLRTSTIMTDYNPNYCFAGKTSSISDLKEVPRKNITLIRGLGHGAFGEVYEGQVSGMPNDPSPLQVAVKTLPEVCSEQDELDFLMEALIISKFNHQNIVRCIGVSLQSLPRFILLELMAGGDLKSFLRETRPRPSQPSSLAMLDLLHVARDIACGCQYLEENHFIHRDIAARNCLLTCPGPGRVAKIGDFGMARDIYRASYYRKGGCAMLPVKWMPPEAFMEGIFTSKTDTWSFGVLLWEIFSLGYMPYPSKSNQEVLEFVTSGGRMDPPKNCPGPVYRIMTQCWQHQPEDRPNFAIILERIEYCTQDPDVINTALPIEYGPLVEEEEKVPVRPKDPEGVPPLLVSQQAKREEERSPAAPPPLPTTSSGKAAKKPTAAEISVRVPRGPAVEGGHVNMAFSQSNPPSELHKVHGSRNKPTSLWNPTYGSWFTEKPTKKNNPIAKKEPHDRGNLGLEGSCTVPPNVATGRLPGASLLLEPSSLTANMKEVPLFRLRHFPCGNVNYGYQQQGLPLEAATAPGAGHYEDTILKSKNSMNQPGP

IC50 [1] [µM] | IC50 [2] [µM] | melting point | SMILES
10 to 100 | 10 to 100 | 142 °C (dec.) | OC1CNc2ncc(I)cc2N1Cc1cc(F)ccc1C(F)(F)F (stereo not drawn) [Example 134, 1-(5-Fluoro-2-trifluoromethylbenzyl)-7-iodo-1,2,3,4-tetrahydropyrido[2,3-b]pyrazin-2-ol]
> 100 | > 100 | > 200 °C | CCOC(=O)c1ccc(-c2cnc3c(c2)NC(=O)CN3)cc1 [Example 135, 4-(2-Oxo-1,2,3,4-tetrahydropyrido[2,3-b]pyrazin-7-yl)benzoic acid ethyl ester]
> 100 | > 100 | > 200 °C | O=C1CNc2ncc(I)cc2N1Cc1c(Cl)cccc1Cl [Example 136, 1-(2,6-Dichlorobenzyl)-7-iodo-3,4-dihydro-1H-pyrido[2,3-b]pyrazin-2-one]
> 100 | 10 to 100 | > 200 °C | O=C1CNc2ncc(-c3cccnc3)cc2N1Cc1c(Cl)cccc1Cl [Example 137, 1-(2,6-Dichlorobenzyl)-7-pyridin-3-yl-3,4-dihydro-1H-pyrido[2,3-b]pyrazin-2-one]
10 to 100 | 10 to 100 | 226 °C | CCOC(=O)c1ccc(-c2cnc3c(c2)N(Cc2c(Cl)cccc2Cl)C(=O)CN3)cc1 [Example 139, 4-[1-(2,6-Dichlorobenzyl)-2-oxo-1,2,3,4-tetrahydropyrido[2,3-b]pyrazin-7-yl]benzoic acid ethyl ester]
1 to 10 | 1 to 10 | > 200 °C | O=C(O)c1ccc(-c2cnc3c(c2)N(Cc2c(Cl)cccc2Cl)C(=O)CN3)cc1 [Example 140, 4-[1-(2,6-Dichlorobenzyl)-2-oxo-1,2,3,4-tetrahydropyrido[2,3-b]pyrazin-7-yl]benzoic acid]
1 to 10 | 0.1 to 1 | > 200 °C | O=C(NCCN1CCCC1)c1ccc(-c2cnc3c(c2)N(Cc2c(Cl)cccc2Cl)C(=O)CN3)cc1 [Example 142, 4-[1-(2,6-Dichlorobenzyl)-2-oxo-1,2,3,4-tetrahydropyrido[2,3-b]pyrazin-7-yl]-N-(2-pyrrolidin-1-yl-ethyl)benzamide]
> 100 | 10 to 100 | > 200 °C | O=C1CNc2ncc(I)cc2N1Cc1cc(Cl)ccc1Cl [Example 155, 1-(2,5-Dichlorobenzyl)-7-iodo-3,4-dihydro-1H-pyrido[2,3-b]pyrazin-2-one]
> 100 | 1 to 10 | 169 °C | Clc1ccc(Cl)c(CN2CCNc3ncc(I)cc32)c1 [Example 158, 1-(2,5-Dichlorobenzyl)-7-iodo-1,2,3,4-tetrahydropyrido[2,3-b]pyrazine]
0.1 to 1 | 0.1 to 1 | 199 °C | O=C(c1ccc(-c2cnc3c(c2)N(Cc2c(Cl)cccc2Cl)C(=O)CN3)cc1)N1CCC(N2CCCC2)CC1 [Example 161, 1-(2,6-Dichlorobenzyl)-7-[4-(4-(pyrrolidin-1-yl)piperidine-1-carbonyl)phenyl]-3,4-dihydro-1H-pyrido[2,3-b]pyrazin-2-one]
10 to 100 | 1 to 10 | > 200 °C | Clc1cccc(Cl)c1CN1CCNc2ncc(I)cc21 [Example 162, 1-(2,6-Dichlorobenzyl)-7-iodo-1,2,3,4-tetrahydropyrido[2,3-b]pyrazine]
> 100 | 0.1 to 1 | 205 °C | Clc1ccc(Cl)c(CN2CCNc3ncc(-c4ccc(Cl)nc4)cc32)c1 [Example 165, 7-(6-Chloropyridin-3-yl)-1-(2,5-dichlorobenzyl)-1,2,3,4-tetrahydropyrido[2,3-b]pyrazine]
> 100 | 0.1 to 1 | > 200 °C | Clc1ccc(Cl)c(CN2CCNc3ncc(-c4ccc(N5CCCC5)nc4)cc32)c1 [Example 166, 1-(2,5-Dichlorobenzyl)-7-(6-pyrrolidin-1-yl-pyridin-3-yl)-1,2,3,4-tetrahydropyrido[2,3-b]pyrazine]
10 to 100 | 0.1 to 1 | 194 °C | Clc1cc(-c2cnc3c(c2)N(Cc2c(Cl)cccc2Cl)CCN3)ccn1 [Example 167, 7-(2-Chloropyridin-4-yl)-1-(2,6-dichlorobenzyl)-1,2,3,4-tetrahydropyrido[2,3-b]pyrazine]
10 to 100 | 0.1 to 1 | 183 °C | NCC#Cc1cnc2c(c1)N(Cc1cc(Cl)ccc1Cl)CCN2 [Example 169, 3-[1-(2,5-Dichlorobenzyl)-1,2,3,4-tetrahydropyrido[2,3-b]pyrazin-7-yl]prop-2-ynylamine]
10 to 100 | 0.1 to 1 | > 200 °C | CN(C)CC(=O)NCC#Cc1cnc2c(c1)N(Cc1c(Cl)cccc1Cl)CCN2 [Example 172, N-{3-[1-(2,6-Dichlorobenzyl)-1,2,3,4-tetrahydropyrido[2,3-b]pyrazin-7-yl]prop-2-ynyl}-2-dimethylamino-acetamide]

IC50 [1] [µM] | IC50 [2] [µM] | melting point | SMILES
1 to 10 | 1 to 10 | 168 °C | CN(C)CC#Cc1cnc2c(c1)N(Cc1cc(Cl)ccc1Cl)CCN2 [Example 173, {3-[1-(2,5-Dichlorobenzyl)-1,2,3,4-tetrahydropyrido[2,3-b]pyrazin-7-yl]prop-2-ynyl}-dimethylamine]
10 to 100 | 0.1 to 1 | > 200 °C | O=S1(=O)CCN(CC#Cc2cnc3c(c2)N(Cc2cc(Cl)ccc2Cl)CCN3)CC1 [Example 174, 1-(2,5-Dichlorobenzyl)-7-[3-(1,1-dioxo-1λ^6-thiomorpholin-4-yl)prop-1-ynyl]-1,2,3,4-tetrahydropyrido[2,3-b]pyrazine]
10 to 100 | 1 to 10 | 166 °C | CC(c1c(F)ccc(F)c1Cl)N1CCNc2ncc(I)cc21 (stereo not drawn) [Example 176, 1-[1-(2-Chloro-3,6-difluorophenyl)ethyl]-7-iodo-1,2,3,4-tetrahydropyrido[2,3-b]pyrazine]
10 to 100 | > 100 | > 200 °C | O=C1CNc2ncc(I)cc2N1Cc1cccc(F)c1C(F)(F)F [Example 178, 1-[3-Fluoro-2-(trifluoromethyl)benzyl]-7-iodo-3,4-dihydro-1H-pyrido[2,3-b]pyrazin-2-one]
0.1 to 1 | 0.1 to 1 | 134 °C | CC(C)CCn1cc(-c2cnc3c(c2)N(Cc2c(F)ccc(F)c2Cl)CCN3)cn1 [Example 191, 1-(2-Chloro-3,6-difluorobenzyl)-7-[1-(3-methylbutyl)-1H-pyrazol-4-yl]-1,2,3,4-tetrahydropyrido[2,3-b]pyrazine]
0.1 to 1 | < 0.1 | 272 °C | Fc1ccc(F)c(CN2CCNc3ncc(-c4cn[nH]c4)cc32)c1Cl [Example 192, 1-(2-Chloro-3,6-difluorobenzyl)-7-(1H-pyrazol-4-yl)-1,2,3,4-tetrahydropyrido[2,3-b]pyrazine]
> 100 | > 100 | 154 °C | CCOC(=O)c1ccc(-c2cnc3c(c2)N(Cc2cc(Cl)ccc2C(F)(F)F)CCN3)cc1 [Example 193, 4-{1-[5-Chloro-2-(trifluoromethyl)benzyl]-1,2,3,4-tetrahydropyrido[2,3-b]pyrazin-7-yl}benzoic acid ethyl ester]
> 100 | 0.1 to 1 | 174 °C | CCOC(=O)c1cccc(-c2cnc3c(c2)N(Cc2cc(Cl)ccc2C(F)(F)F)CCN3)c1 [Example 194, 3-{1-[5-Chloro-2-(trifluoromethyl)benzyl]-1,2,3,4-tetrahydropyrido[2,3-b]pyrazin-7-yl}benzoic acid ethyl ester]
1 to 10 | 0.1 to 1 | 156 °C | Cn1cc(-c2cnc3c(c2)N(Cc2cc(Cl)ccc2C(F)(F)F)CCN3)cn1 [Example 203, 1-[5-Chloro-2-(trifluoromethyl)benzyl]-7-(1-methyl-1H-pyrazol-4-yl)-1,2,3,4-tetrahydropyrido[2,3-b]pyrazine]
10 to 100 | 0.1 to 1 | 216 °C | O=C(c1ccc(-c2cnc3c(c2)N(Cc2cc(Cl)ccc2C(F)(F)F)CCN3)cc1)N1CCCCC1 [Example 204]
> 100 | > 100 | 108 to 109 °C | O=C(O)CCNc1cccc(Br)n1 [Example 265, 3-(6-bromo-pyridin-2-ylamino)propionic acid]
> 100 | > 100 | 196 to 197 °C | O=C1CCNc2nc(Br)ccc21 [Example 266, 7-bromo-2,3-dihydro-1H-[1,8]naphthyridin-4-one]
> 100 | 10 to 100 | 130 to 131 °C | OC1CCNc2nc(Br)ccc21 (stereo not drawn) [Example 267, 7-bromo-1,2,3,4-tetrahydro-[1,8]naphthyridin-4-ol]
> 100 | > 100 | 125 to 128 °C | OC1CCNc2ncc(Br)cc21 (stereo not drawn) [Example 268, 6-bromo-1,2,3,4-tetrahydro-[1,8]naphthyridin-4-ol]
10 to 100 | > 100 | 124 to 128 °C | CN1CCN(c2ccc(-c3cnc4c(c3)C(O)CCN4)cn2)CC1 (stereo not drawn) [Example 269, 6-[6-(4-Methyl-piperazin-1-yl)pyridin-3-yl]-1,2,3,4-tetrahydro-[1,8]naphthyridin-4-ol]
10 to 100 | 1 to 10 | 124 to 126 °C | Clc1cccc(OC2CCNc3ncc(-c4ccc(N5CCOCC5)cc4)cc32)c1 (stereo not drawn) [Example 280, 4-(3-Chlorophenoxy)-6-(4-morpholin-4-yl-phenyl)-1,2,3,4-tetrahydro-[1,8]naphthyridine]
